Laboratory results from patent US20120077852A1, “HYDROXYPYRIDINONES FOR THE LOCAL TREATMENT OF SKIN MICROCIRCULATORY DISORDERS” (priority 2002, published 2012).

Experiments:
[1] = Kow distribution coefficient, partition between water and 1-octanol; format: physicochemical; conditions: distribution coefficient between water and 1-octanol of the hydroxypyridinone HCl addition salt, according Dubbin et al.
Text: A key feature is the hydro-lipophilic property, which basically correlate with its distribution coefficients (“Kow”).

[2] = Berdoukas et al, Lancet 1993; cited from earlier work
[3] = relative to deferoxamine; cited from earlier work
[4] = Kamiyama et al 1981; cited from earlier work

| Kow [1] | SMILES | cellular uptake versus deferoxamine [2] | partition coefficient, times that of deferoxamine [3] | lipid peroxidation, hydroxyl radical production, free radical-mediated cell damage [4] |
| --- | --- | --- | --- | --- |
| 0.17 | Cc1c(O)c(=O)ccn1C [Example 1, 1,2-dimethyl-3-hydroxy-4-pyridinone] | significantly higher than that of deferoxamine | 21 times | dramatically decrease |
| 0.63 | CCc1c(O)c(=O)ccn1C [Example 11, 1-methyl-2-ethyl-3-hydroxy-4-pyridinone] |  |  |  |
| 1.78 | CCc1c(O)c(=O)ccn1CC [Example 12, 1,2-diethyl-3-hydroxy-4-pyridinone] |  |  |  |
